Experimental data: US10837909B2, “Super-resolution fluorescent imaging probe” (The University of Tokyo, priority 2015, dated 2020)

Key:
[1] = Laser flash photolysis: nucleophilic addition reaction rate constant and time constant with glutathione; format: physicochemical; settings: pH 7.4, 10 mM sodium phosphate buffer, 295 K
Procedure: Change over time of transient absorption of the probe compounds of the present invention at various glutathione concentrations was measured using laser flash photolysis, and a nucleophilic addition reaction rate constant k and a nucleophilic addition reaction rime constant T in the nucleophilic addition-dissociation equilibrium reaction between glutathione and the probe compounds of the present invention were calculated. The solution conditions were […] aqueous solution and pH 7.4 (10 mM sodium phosphate buffer). A measurement condition was 295 K and a light source was a 10 mJ/pulse XeCl excimer laser ([…]).

[2] = Measurement of the fluorescence quantum yield; format: physicochemical; settings: 1 μM probe, 1% DMSO aqueous solution, pH 7.4 (200 mM sodium phosphate buffer)
Procedure: Fluorescence quantum yield of the probe compounds according to the present invention was measured. The solution conditions were 1 μM probe compound, 1% DMSO aqueous solution, and pH 7.4 (200 mM sodium phosphate buffer).

| SMILES | k (nucleophilic addition reaction rate constant) ([1]; glutathione 0.5 mM) | τ (nucleophilic addition reaction time constant) ([1]; glutathione 0.5 mM) | k (nucleophilic addition reaction rate constant) ([1]; glutathione 1 mM) | τ (nucleophilic addition reaction time constant) ([1]; glutathione 1 mM) | k (nucleophilic addition reaction rate constant) ([1]; glutathione 5 mM) | τ (nucleophilic addition reaction time constant) ([1]; glutathione 5 mM) | k (nucleophilic addition reaction rate constant) ([1]; glutathione 10 mM) | τ (nucleophilic addition reaction time constant) ([1]; glutathione 10 mM) | k (nucleophilic addition reaction rate constant) ([1]; glutathione 0.1 mM) | τ (nucleophilic addition reaction time constant) ([1]; glutathione 0.1 mM) | Fluorescence quantum yield [2] |
| --- | --- | --- | --- | --- | --- | --- | --- | --- | --- | --- | --- |
| C[Si]1(C)C2=CC(=N)C=CC2=C(c2ccccc2)c2ccc(N)cc21 [Compound 2] | 1.21 s⁻¹ | 823 ms | 2.05 s⁻¹ | 487 ms | 11.0 s⁻¹ | 90.7 ms | 25.0 s⁻¹ | 40.1 ms |  |  |  |
| CN(C)c1ccc2c(c1)[Si](C)(C)C1=CC(=[N+](C)C)C=CC1=C2 [Compound 5] | 95.8 s⁻¹ | 10.4 ms | 176.2 s⁻¹ | 5.67 ms | 976 s⁻¹ | 1.02 ms | 2290 s⁻¹ | 0.436 ms | 14.3 s⁻¹ | 69.9 ms | 0.39 |
| CN(C)c1ccc2c(c1)[Si](C)(C)C1=C/C(=[N+](\C)CCCC(=O)O)C=CC1=C2 [Compound 12] | 42.8 s⁻¹ | 23.4 ms | 75.6 s⁻¹ | 13.2 ms | 444 s⁻¹ | 2.25 ms | 1080 s⁻¹ | 0.93 ms | 7.49 s⁻¹ | 134 ms | 0.46 |
| CN(C)c1ccc2c(c1)[Si](C)(C)C1=C/C(=[N+](\C)CCCC(=O)NCc3ccc(COc4nc(N)nc5[nH]cnc45)cc3)C=CC1=C2 [Compound 14] |  |  |  |  |  |  |  |  |  |  | 0.27 |
| CN(C)c1ccc2c(c1)[Si](C)(C)C1=C/C(=[N+](\C)CCCC(=O)NCCOCCOCCCCCCCl)C=CC1=C2 [Compound 16] |  |  |  |  |  |  |  |  |  |  | 0.49 |
| CN(C)c1ccc2c(c1)[Si](C)(C)C1=C/C(=[N+](\C)CCCC(=O)ON3C(=O)CCC3=O)C=CC1=C2 [Compound 17] |  |  |  |  |  |  |  |  |  |  | 0.46 |
| CC1(C)C2=CC(=N)C=CC2=Cc2ccc(N)cc21 [Compound 28] | 195 s⁻¹ | 5.12 ms | 371 s⁻¹ | 2.69 ms | 2170 s⁻¹ | 0.46 ms | 5260 s⁻¹ | 0.19 ms | 21.1 s⁻¹ | 47.5 ms | 0.70 |
| CC1(C)C2=C/C(=N/CCCC(=O)O)C=CC2=Cc2ccc(N)cc21 [Compound 32] | 61.7 s⁻¹ | 16.2 ms | 106 s⁻¹ | 9.45 ms | 592 s⁻¹ | 1.69 ms | 1410 s⁻¹ | 0.71 ms | 15.8 s⁻¹ | 63.1 ms | 0.69 |
